From PubChem BioAssay (NCI)
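Here, GI50 denotes the concentration required for 50% inhibition of growth. TGI denotes the concentration required for complete inhibition of growth.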

How the values were obtained:
Assay in all cases: NCI anticancer screen, dose series, 384-well format
HCT-15 colon = test system: HCT-15 colon
HT29 colon = test system: HT29 colon
TK-10 renal = test system: TK-10 renal
MOLT-4 leukemia = test system: MOLT-4 leukemia
UACC-62 melanoma = test system: UACC-62 melanoma
HL-60(TB) leukemia = test system: HL-60(TB) leukemia
LOX IMVI melanoma = test system: LOX IMVI melanoma
MDA-MB-468 breast = test system: MDA-MB-468 breast
HS 578T breast = test system: HS 578T breast
SNB-75 CNS = test system: SNB-75 CNS
RXF 393 renal = test system: RXF 393 renal
K-562 leukemia = test system: K-562 leukemia
T-47D breast = test system: T-47D breast
IGROV1 ovarian = test system: IGROV1 ovarian
OVCAR-5 ovarian = test system: OVCAR-5 ovarian
SK-MEL-2 melanoma = test system: SK-MEL-2 melanoma
SNB-19 CNS = test system: SNB-19 CNS
M14 melanoma = test system: M14 melanoma
OVCAR-3 ovarian = test system: OVCAR-3 ovarian
UACC-257 melanoma = test system: UACC-257 melanoma
MDA-MB-435 melanoma = test system: MDA-MB-435 melanoma
CAKI-1 renal = test system: CAKI-1 renal
DU-145 prostate = test system: DU-145 prostate
HCT-116 colon = test system: HCT-116 colon
COLO 205 colon = test system: COLO 205 colon
SK-MEL-5 melanoma = test system: SK-MEL-5 melanoma
HOP-92 NSCLC = test system: HOP-92 NSCLC
EKVX NSCLC = test system: EKVX NSCLC
786-0 renal = test system: 786-0 renal
RPMI-8226 leukemia = test system: RPMI-8226 leukemia
NCI-H522 lung = test system: NCI-H522 lung
CCRF-CEM leukemia = test system: CCRF-CEM leukemia
NCI-H460 NSCLC = test system: NCI-H460 NSCLC
ACHN renal = test system: ACHN renal
HCC-2998 colon = test system: HCC-2998 colon
MCF7 breast = test system: MCF7 breast
SN12C renal = test system: SN12C renal
MALME-3M melanoma = test system: MALME-3M melanoma
U251 glioblastoma = test system: U251 glioblastoma
NCI-H23 lung = test system: NCI-H23 lung

In the case of O=C1CCc2c(Oc3ccc4c(c3)[C@H]3[C@@H](O4)[C@@H]3c3nc4ccc(C(F)(F)F)cc4[nH]3)ccnc2N1, the GI50 (HCT-15 colon) is reported as 2.42 µM, the TGI (HCT-15 colon) is reported as > 100 µM and the GI50 (HT29 colon) is reported as 0.206 µM. For the same molecule, the TGI (HT29 colon) was > 100 µM, the GI50 (TK-10 renal) was 1.83 µM and the TGI (TK-10 renal) was 8.27 µM. The GI50 (MOLT-4 leukemia) was 1.14 µM, the TGI (MOLT-4 leukemia) was 2.38 µM and the GI50 (UACC-62 melanoma) was 0.0173 µM. It also gave a TGI (UACC-62 melanoma) of 0.119 µM, a GI50 (HL-60(TB) leukemia) of 0.0857 µM and a TGI (HL-60(TB) leukemia) of 0.21 µM. It also gave a GI50 (LOX IMVI melanoma) of 0.113 µM, a TGI (LOX IMVI melanoma) of 0.256 µM and a GI50 (MDA-MB-468 breast) of 1.06 µM. It also gave a TGI (MDA-MB-468 breast) of 3.33 µM, a GI50 (HS 578T breast) of 1.6 µM and a TGI (HS 578T breast) of 7.13 µM. The GI50 (SNB-75 CNS) was 4.41 µM, the TGI (SNB-75 CNS) was > 100 µM and the GI50 (RXF 393 renal) was 0.188 µM. The TGI (RXF 393 renal) was 0.331 µM, the GI50 (K-562 leukemia) was 0.0201 µM and the TGI (K-562 leukemia) was 0.05 µM. It also gave a GI50 (T-47D breast) of 1.69 µM, a TGI (T-47D breast) of 6.94 µM and a GI50 (IGROV1 ovarian) of 0.789 µM. The TGI (IGROV1 ovarian) was 7.13 µM, the GI50 (OVCAR-5 ovarian) was 0.793 µM and the TGI (OVCAR-5 ovarian) was > 100 µM. It also gave a GI50 (SK-MEL-2 melanoma) of 0.258 µM, a TGI (SK-MEL-2 melanoma) of 1.21 µM and a GI50 (SNB-19 CNS) of 4.79 µM. The TGI (SNB-19 CNS) was > 100 µM, the GI50 (M14 melanoma) was 0.0134 µM and the TGI (M14 melanoma) was 0.119 µM. For the same molecule, the GI50 (OVCAR-3 ovarian) was 3.57 µM, the TGI (OVCAR-3 ovarian) was > 100 µM and the GI50 (UACC-257 melanoma) was 0.0436 µM. The TGI (UACC-257 melanoma) was 0.347 µM, the GI50 (MDA-MB-435 melanoma) was 0.0302 µM and the TGI (MDA-MB-435 melanoma) was 0.169 µM. For the same molecule, the GI50 (CAKI-1 renal) was 1.26 µM, the TGI (CAKI-1 renal) was > 100 µM and the GI50 (DU-145 prostate) was 2.94 µM. For the same molecule, the TGI (DU-145 prostate) was > 100 µM, the GI50 (HCT-116 colon) was 0.494 µM and the TGI (HCT-116 colon) was 3.58 µM. The GI50 (COLO 205 colon) was 0.018 µM, the TGI (COLO 205 colon) was 0.348 µM and the GI50 (SK-MEL-5 melanoma) was 0.0549 µM. It also gave a TGI (SK-MEL-5 melanoma) of 1.48 µM, a GI50 (HOP-92 NSCLC) of 1.65 µM and a TGI (HOP-92 NSCLC) of 3.91 µM. For the same molecule, the GI50 (EKVX NSCLC) was 1.64 µM, the TGI (EKVX NSCLC) was 8.38 µM and the GI50 ([…]-0 renal) was 3.17 µM. For the same molecule, the TGI (786-0 renal) was > 100 µM, the GI50 (RPMI-8226 leukemia) was 0.166 µM and the TGI (RPMI-8226 leukemia) was 0.304 µM. It also gave a GI50 (NCI-H522 lung) of 0.154 µM, a TGI (NCI-H522 lung) of 0.292 µM and a GI50 (CCRF-CEM leukemia) of 1.2 µM. The TGI (CCRF-CEM leukemia) was 3.05 µM, the GI50 (NCI-H460 NSCLC) was 1.67 µM and the TGI (NCI-H460 NSCLC) was > 100 µM. For the same molecule, the GI50 (ACHN renal) was 0.241 µM, the TGI (ACHN renal) was 0.592 µM and the GI50 (HCC-2998 colon) was 1.2 µM. For the same molecule, the TGI (HCC-2998 colon) was 5.98 µM, the GI50 (MCF7 breast) was 0.294 µM and the TGI (MCF7 breast) was 1.17 µM. The GI50 (SN12C renal) was 2.08 µM, the TGI (SN12C renal) was > 100 µM and the TGI (MALME-3M melanoma) was 0.0322 µM. The GI50 (U251 glioblastoma) was 3.39 µM, the TGI (U251 glioblastoma) was > 100 µM and the GI50 (NCI-H23 lung) was 0.169 µM. It also gave a TGI (NCI-H23 lung) of 0.454 µM.
